Experimental data as given in US20260345619A1 (Principia Biopharma Inc., priority 2023, published 2026).

Test: Loss of asthma control (LOAC) events, 12-week ICS/LABA withdrawal study
Type: in vivo, human
Details: for RD vs. Placebo / LOAC, number / OR vs. placebo: 400 mg BID
Excerpt: The general construct of this 12-week Loss of Asthma Control (LOAC) study consisted of a 4-week standardized ICS/LABA background therapy stabilization phase, a 4or 5-week background therapy withdrawal phase and a 3- or 4-week no background therapy phase, followed by a 4-week post IMP treatment safety follow-up period at the beginning of which, pre-screening asthma controller medications are restarted. Participants had access to short-acting β-agonist (SABA) reliever medication at all times during the protocol.
The primary endpoint was the proportion of patients with LOAC. The key secondary endpoint for the study was change in pre-bronchodilator FEV1 from baseline at EOT.
The primary endpoint was proportion of participants with LOAC during the 12-week treatment period.
Note that if the number of participants in some regions was too low, these regions may have been pooled with other regions. This strategy also applied to all the rest of the analyses where region was one of the covariates.
To assess the consistency in treatment effects across different subgroup levels, subgroup analyses were to be performed for the primary efficacy endpoint with respect to age group, gender, region, and other factors.
Secondary endpoints included pre-bronchodilator FEV1 change from baseline at EOT, ACQ-5 score change from baseline, and AQLQ score change from baseline. Other secondary and exploratory endpoints are described in Table 2.

[1] = all others than low EOS and low FeNO
[2] = background ICS/LABA dose Medium
[3] = baseline IgA <Median (2600) IU/mL
[4] = baseline IgA ≥Median (2600) IU/mL
[5] = baseline IgE <Median (210.8) IU/mL
[6] = baseline IgE ≥Median (210.8) IU/mL
[7] = baseline percent predicted FEV1 <Median (68)
[8] = baseline percent predicted FEV1 ≥ Median (68)
[9] = baseline pre-BD FEV1 <Median (2.022) L
[10] = baseline pre-BD FEV1 ≥Median (2.022) L
[11] = blood eosinophil level 1 <0.15 (10^9/L)
[12] = blood eosinophil level 1 ≥0.15 (10^9/L)
[13] = blood eosinophil level 2 <0.3 (10^9/L)
[14] = blood eosinophil level 2 ≥0.3 (10^9/L)
[15] = 400 mg TID cohort, Eastern Europe, n = 43
[16] = 400 mg TID cohort, Latin America, n = 19

With CC(C)(C=C(C#N)C(=O)N1CCC[C@@H](n2nc(-c3ccc(Oc4ccccc4)cc3F)c3c(N)ncnc32)C1)N1CCN(C2COC2)CC1 (mixture of isomers) [rilzabrutinib, (R)-2-[3-[4-amino-3-(2-fluoro-4-phenoxy-phenyl)pyrazolo[3,4-d]pyrimidin-1-yl]piperidine-1-carbonyl]-4-methyl-4-[4-(oxetan-3-yl)piperazin-1-yl]pent-2-enenitrile] the “RD vs. Placebo” value (age at onset ≥18-<40 years) was −0.314, the “LOAC, number” value (age at onset ≥18 years) was 7 and the OR vs. placebo (age at onset ≥18 years) was 0.323. For the same compound, the “RD vs. Placebo” value (age at onset ≥18 years) was −0.258, the “LOAC, number” value (age at onset ≥40 years) was 3 and the OR vs. placebo (age at onset ≥40 years) was 3.000. For the same compound, the “RD vs. Placebo” value (age at onset ≥40 years) was 0.250, the “LOAC, number” value [1] was 12 and the OR vs. placebo [1] was 0.808. For the same compound, the “RD vs. Placebo” value [1] was −0.053, the “LOAC, number” value (atopic medical conditions: No) was 4 and the OR vs. placebo (atopic medical conditions: No) was 0.380. The “RD vs. Placebo” value (atopic medical conditions: No) was −0.204, the “LOAC, number” value (atopic medical conditions: Yes) was 8 and the OR vs. placebo (atopic medical conditions: Yes) was 0.681. For the same compound, the “RD vs. Placebo” value (atopic medical conditions: Yes) was −0.069, the “LOAC, number” value (background ICS/LABA dose High) was 11 and the OR vs. placebo (background ICS/LABA dose High) was 0.737. The “RD vs. Placebo” value (background ICS/LABA dose High) was −0.075, the “LOAC, number” value [2] was 1 and the “RD vs. Placebo” value [2] was −0.467. For the same compound, the OR vs. placebo (baseline ACQ-5 >2) was 0.475, the “LOAC, number” value (baseline ACQ-5 ≤2) was 7 and the OR vs. placebo (baseline ACQ-5 ≤2) was 0.651. The “RD vs. Placebo” value (baseline ACQ-5 ≤2) was −0.098, the “LOAC, number” value (baseline FeNO level 1 <25 ppb) was 3 and the OR vs. placebo (baseline FeNO level 1 <25 ppb) was 0.261. The “RD vs. Placebo” value (baseline FeNO level 1 <25 ppb) was −0.227, the “LOAC, number” value (baseline FeNO level 1 ≥25 ppb) was 9 and the OR vs. placebo (baseline FeNO level 1 ≥25 ppb) was 0.946. For the same compound, the “RD vs. Placebo” value (baseline FeNO level 1 ≥25 ppb) was −0.007, the “LOAC, number” value (baseline FeNO level 2 <35 ppb) was 8 and the OR vs. placebo (baseline FeNO level 2 <35 ppb) was 0.448. The “RD vs. Placebo” value (baseline FeNO level 2 <35 ppb) was −0.198, the “LOAC, number” value (baseline FeNO level 2 ≥35 ppb) was 4 and the OR vs. placebo (baseline FeNO level 2 ≥35 ppb) was 0.800. For the same compound, the “RD vs. Placebo” value (baseline FeNO level 2 ≥35 ppb) was −0.053, the “LOAC, number” value [3] was 4 and the OR vs. placebo [3] was 0.205. For the same compound, the “RD vs. Placebo” value [3] was −0.365, the “LOAC, number” value [4] was 8 and the OR vs. placebo [4] was 1.633. For the same compound, the “RD vs. Placebo” value [4] was 0.122, the “LOAC, number” value (baseline IgE <100 IU/mL) was 2 and the OR vs. placebo (baseline IgE <100 IU/mL) was 0.412. For the same compound, the “RD vs. Placebo” value (baseline IgE <100 IU/mL) was −0.220, the “LOAC, number” value [5] was 6 and the OR vs. placebo [5] was 0.744. For the same compound, the “RD vs. Placebo” value [5] was −0.053, the “LOAC, number” value (baseline IgE ≥100 IU/mL) was 10 and the OR vs. placebo (baseline IgE ≥100 IU/mL) was 0.652. For the same compound, the “RD vs. Placebo” value (baseline IgE ≥100 IU/mL) was −0.092, the “LOAC, number” value [6] was 6 and the OR vs. placebo [6] was 0.604. The “RD vs. Placebo” value [6] was −0.124, the “LOAC, number” value [7] was 7 and the OR vs. placebo [7] was 0.700. The “RD vs. Placebo” value [7] was −0.088, the OR vs. placebo [8] was 0.556 and the “RD vs. Placebo” value [8] was −0.143. For the same compound, the “LOAC, number” value [9] was 7, the OR vs. placebo [9] was 0.700 and the “RD vs. Placebo” value [9] was −0.088. For the same compound, the OR vs. placebo [10] was 0.556, the “RD vs. Placebo” value [10] was −0.143 and the “LOAC, number” value [11] was 2. The OR vs. placebo [11] was 0.527, the “RD vs. Placebo” value [11] was −0.135 and the “LOAC, number” value [12] was 10. For the same compound, the OR vs. placebo [12] was 0.737, the “RD vs. Placebo” value [12] was −0.077 and the OR vs. placebo [13] was 0.231. The “RD vs. Placebo” value [13] was −0.197, the “LOAC, number” value [14] was 7 and the OR vs. placebo [14] was 0.951. The “RD vs. Placebo” value [14] was −0.013, the “LOAC, number” value (low EOS (<0.15) and low FeNO (<25)) was 0 and the “LOAC, number” value (smoking history Former) was 3. For the same compound, the OR vs. placebo (smoking history Former) was 3.000, the “RD vs. Placebo” value (smoking history Former) was 0.250 and the “LOAC, number” value (smoking history Never) was 9. The OR vs. placebo (smoking history Never) was 0.474, the “RD vs. Placebo” value (smoking history Never) was −0.179 and the “LOAC incidence, number of participants” value [15] was 8. For the same compound, the “LOAC incidence, percentage” value [15] was “(18.6)”, the “LOAC OR vs. placebo” value (400 mg TID cohort, Eastern Europe, 95% CI (0.187, 1.368)) was 0.506 and the “LOAC incidence, number of participants” value [16] was 4. The “LOAC incidence, percentage” value [16] was “(21.1)”, the “LOAC OR vs. placebo” value (400 mg TID cohort, Latin America, 95% CI (0.166, 3.357)) was 0.747 and the “LOAC RD vs. placebo” value (400 mg TID cohort, Latin America, 95% CI (−0.322, 0.217)) was −0.053.
